For one molecule, viability results are on record in paper PMC12644596 (Scientific Reports, 2025).

The nature of this data set: MTT test, normal cells, 24 h. The format is cell-based. Particulars: human, human dermal adult fibroblasts (HDFa).

Molecule `O=[N+]([O-])c1ccc(NCCCCN=C=S)c2nonc12` [NBDC4NCS, N-(4-isothiocyanatobutyl)-7-nitro-2,1,3-benzoxadiazol-4-amine] came in with a viability at 24 h of around 70%.

Broadly, the viability is a per cent measure of how many cells are alive, often set against a control.
